Patent publication US10106558B2, “Azolobenzazine compounds, compositions comprising these compounds and their use for controlling invertebrate pests” (BASF SE, priority 2015, dated 2018)

Assays:
Format in all cases: in vivo
[1] = tested on: yellow fever mosquito (Aedes aegypti); experiment: whole plant or invertebrate; conditions: 48 h, larval mortality visually assessed after 2 days, read-out: mortality in comparison with untreated controls
Procedure, shortened: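 Freshly hatched larvae (5-15 per well) held in 200 μl tap water; compounds formulated in 25% DMSO/water and 2.5 μl sprayed at several concentrations, two replicates. Plates kept 2 days at 28 °C, 80% RH, then larval mortality scored visually.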

[2] = tested on: Orchid Thrips (Dichromothrips corbetti); experiment: Action on orchid thrips, floral-immersion technique; conditions: adult thrips, 72 hours after treatment, read-out: mortality in comparison with untreated controls
Procedure, shortened: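 Lab-colony adult thrips, about 20 per arena, were exposed to whole orchid flower petals dipped in compound diluted in 1:1 acetone:water with 0.01% v/v Kinetic HV and then dried. Arenas were held under continuous light at about 28 °C. Live thrips were counted after 3 days and percent mortality recorded at 72 h post-treatment.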

[3] = tested on: boll weevil (Anthonomus grandis); experiment: Action on boll weevil, eggs on insect diet in 96-well microtiter plates; conditions: 120 h, 800 ppm, egg and larval mortality visually assessed after 5 days, read-out: mortality in comparison with untreated controls
Procedure, shortened: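 Diet in 96-well plates was infested with 5-10 A. grandis eggs and sprayed with compounds formulated in 75% water/25% DMSO, at several concentrations, in two replicates. Plates were held 5 days at about 25±1 °C and 75±5% RH. Egg and larval mortality was then scored visually.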

[4] = tested on: Silverleaf Whitefly (Bemisia argentifolii) (Adults); experiment: Action on silverleaf whitefly adults, sprayed cotton plants; conditions: 72 h, 3 days after treatment, read-out: mortality in comparison with untreated controls
Protocol: Example B4: Action on Silverleaf Whitefly (Bemisia argentifolii) (Adults)
The active compounds were formulated by a Tecan liquid handler in 100% cyclohexanone as a 10,000 ppm solution supplied in tubes. The 10,000 ppm solution was serially diluted in 100% cyclohexanone to make interim solutions. These served as stock solutions for which final dilutions were made by the Tecan in 50% acetone:50% water (v/v) into 5 or 10 ml glass vials. A nonionic surfactant (Kinetic®) was included in the solution at a volume of 0.01% (v/v). The vials were then inserted into an automated electrostatic sprayer equipped with an atomizing nozzle for application to plants/insects.
Cotton plants at the cotyledon stage (one plant per pot) were sprayed by an automated electrostatic plant sprayer equipped with an atomizing spray nozzle. The plants were dried in the sprayer fume hood and then removed from the sprayer. Each pot was placed into a plastic cup and about 10 to 12 whitefly adults (approximately 3-5 days old) were introduced. The insects were collected using an aspirator and a nontoxic Tygon® tubing connected to a barrier pipette tip. The tip, containing the collected insects, was then gently inserted into the soil containing the treated plant, allowing insects to crawl out of the tip to reach the foliage for feeding. Cups were covered with a reusable screened lid. Test plants were maintained in a growth room at about 25° C. and about 20-40% relative humidity for 3 days, avoiding direct exposure to fluorescent light (24 hour photoperiod) to prevent trapping of heat inside the cup. Mortality was assessed 3 days after treatment, compared to untreated control plants.

[5] = tested on: Mediterranean fruitfly (Ceratitis capitata); experiment: Action on Mediterranean fruitfly, eggs on insect diet in microtiter plates; conditions: 120 h, egg and larval mortality visually assessed after 5 days, read-out: mortality in comparison with untreated controls
Procedure, shortened: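 Microtiter plates held insect diet plus 50-80 C. capitata eggs; compounds in 75% water/25% DMSO were sprayed onto the diet at several concentrations, two replicates. Plates were kept at about […] and […] relative humidity for 5 days, then egg and larval mortality was scored visually.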

[6] = tested on: tobacco budworm (Heliothis virescens); experiment: Action on tobacco budworm, eggs on insect diet in 96-well microtiter plates; conditions: 120 h, egg and larval mortality visually assessed after 5 days, read-out: mortality in comparison with untreated controls
Procedure, shortened: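 Compounds in 25% DMSO/water sprayed (10 μl) onto insect diet holding 15–25 H. virescens eggs, two replicates at several concentrations. Held 5 days at about 28±1 °C, 80±5% RH. Egg and larval mortality scored visually.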

[7] = tested on: vetch aphid (Megoura viciae); experiment: Action on vetch aphid, broad bean leaf disks in 24-well microtiter plates; conditions: foliar, 120 h, adult aphids on treated leaf disks, 5 days, read-out: mortality in comparison with untreated controls
Protocol: Example B7: Action on Vetch Aphid (Megoura viciae)
For evaluating control of vetch aphid (Megoura viciae) through contact or systemic means the test unit consisted of 24-well-microtiter plates containing broad bean leaf disks.
The compounds were formulated using a solution containing 75% v/v water and 25% v/v DMSO. Different concentrations of formulated compounds were sprayed onto the leaf disks at 2.5 μl, using a custom built micro atomizer, at two replications.
After application, the leaf disks were air-dried and 5-8 adult aphids placed on the leaf disks inside the microtiter plate wells. The aphids were then allowed to suck on the treated leaf disks and incubated at about 23±1° C. and about 50±5% relative humidity for 5 days. Aphid mortality and fecundity was then visually assessed.

[8] = tested on: Diamond Back Moth (Plutella xylostella); experiment: Action on diamond back moth, dipped cabbage leaves; conditions: 3rd instar larvae, 72 hours after treatment, read-out: mortality in comparison with untreated controls
Procedure, shortened: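 Cabbage leaves dipped in compound in 1:1 water:acetone with 0.01% (vol/vol) surfactant, air-dried, placed on moist filter paper and infested with ten 3rd-instar larvae. Mortality scored 72 hours after treatment; feeding damage rated on a 0-100% scale.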

[9] = tested on: Southern Armyworm (Spodoptera eridania), 2nd instar larvae; experiment: Action on southern armyworm 2nd instar larvae, sprayed lima bean plants; conditions: 96 h, 4 days after treatment, read-out: mortality in comparison with untreated controls
Procedure, shortened: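 Lima bean plants (Sieva, 1st true leaf) sprayed electrostatically with compound in 50% acetone/water plus 0.01% nonionic surfactant, dried, then infested with 10–11 larvae in bags. Held at about 25 °C, 20–40% RH; mortality and reduced feeding scored 4 days after treatment versus untreated plants.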

CC(C)c1ccccc1N1CCS/C1=N/N=C/c1ccc2c(ccc3c2ncn3-c2ccc(OC(F)(F)F)cc2)n1 [Compound C-21, (E)-3-(2-isopropylphenyl)-N-[(E)-[3-[4-(trifluoromethoxy)phenyl]imidazo[4,5-f]quinolin-7-yl]methyleneamino]thiazolidin-2-imine]
≥ 75%: mortality at 800 ppm [1] | mortality at 500 ppm [2] | mortality at 800 ppm [3] | mortality at 500 ppm [4] | mortality at 800 ppm [5] | mortality at 800 ppm [6] | mortality at 800 ppm [7] | mortality at 500 ppm [8] | mortality at 500 ppm [9]
